# According to patent publication US20040101477A1, “Individualization of therapy with anesthetics” (Xanthus Life Sciences, Inc., priority 2002, published 2004):
# Read-outs that look alike come from different tables or passages of the source. Marks after values point to notes of the source that are not given here.
# Assays:
# 1X-Ab = test: Competitive antigen ELISA, cross-reactivity of 1X-Ab; type: binding, rabbit; settings: 0 = absence of inhibition or inhibition no higher than 40% at 5 × 10^−3 M
# Description: (§1) Buffers and water without additives are filtered through millipore filters and kept for 1 week. BSA, antibodies, Tween™ 20 and horse radish peroxidase conjugates are added to these buffers and water just prior to use. Urine samples are usually collected 4 hours after drinking a cup of coffee (instant or brewed with approximately 100 mg of caffeine per cup) and stored at 80° C. The urine samples are diluted 10 times with sodium phosphate buffer (620 mosm, pH 7.50) and are subsequently diluted with water to give concentrations of AAMU and 1× no higher than 3×10^−6 M in the ELISA. All the pipettings are done with an eight-channel pipette, except those of the antibody and sample solutions. Starting with the last well, 100 μL of a carbonate buffer (100 mM, pH 9.6) containing 2.5 μg mL-^1 antibodies are added to each well. After 90 min. at room temperature, the wells are washed three times with […] of TPB: isotonic sodium phosphate buffer (310 mosm, pH 7.50) containing 0.05% Tween™ 20.
# (§2) After the initial wash, unoccupied sites are blocked by incubation for 90 min. at room temperature with 100 μL TBP containing 3% BSA. The wells are washed four times with 100 μL TPB. […] The microplate is gently shaken with an orbital shaker at room temperature for 3-4 hours. The wells are washed three times with 100 μL TPB containing 1% BSA and three times with water containing 0.05% Tween™ 20. To the washed plate is added 150 μL of a substrate buffer composed of citric acid (25 mM) and sodium phosphate dibasic buffer (50 mM, pH 5.0) containing 0.06% hydrogen peroxide and 0.04% o-phenylenediamine hydrochloride.
# (§3) Buffers and water without additives were filtered through millipore filters and kept for 1 week. BSA, antibodies, Tween™ 20 and horse radish peroxidase conjugates were added to these buffers and water just prior to use. Urine samples were usually collected 4 hours after drinking a cup of coffee (instant or brewed with approximately 100 mg of caffeine per cup) and stored at −80° C. They were diluted 10 times with sodium phosphate buffer (620 mosm, pH 7.50) and were subsequently diluted with water to give concentrations of AAMU and 1× no higher than 3×10^−6 M in the ELISA. All the pipettings were done with an eight-channel pipette, except those of the antibody and sample solutions. Starting with the last well, 100 μL of a carbonate buffer (100 mM, pH 9.6) containing 2.5 μg mL-^1 antibodies was pipetted. After 90 min. at room temperature, the wells were washed three times with 100 μL of TPB: isotonic sodium phosphate buffer (310 mosm, pH 7.50) containing 0.05% Tween™ 20.
# (§4) After the initial wash, unoccupied sites were blocked by incubation for 90 min. at room temperature with 100 μL TBP containing 3% BSA. The wells were washed four times with 100 μL TPB. […] The microplate was gently shaken with an orbital shaker at room temperature for 3-4 hours. The wells were washed three times with 100 μL with TPB containing 1% BSA and three times with water containing 0.05% Tween™ 20. To the washed plate was added 150 μL of a substrate buffer composed of citric acid (25 mM) and sodium phosphate dibasic buffer (50 mM, pH 5.0) containing 0.06% hydrogen peroxide and 0.04% o-phenylenediamine hydrochloride. After 20 min. at room temperature with shaking, the reaction was stopped with 50 μL of 2.5 N HCl.
# (§5) The cross reactivities of AAMU-Ab and 1×-Ab were tested using a wide variety of caffeine metabolites and structural analogs (Table 2 below). AAMU-Ab appeared highly specific for binding AAMU, while 1×-Ab appeared relatively specific for binding 1×.
# AAMU-Ab = test: Competitive antigen ELISA, cross-reactivity of AAMU-Ab; type: binding, rabbit; settings: 0 = absence of inhibition or inhibition no higher than 40% at 5 × 10^−3 M
# Description: as §1, §2, §3, §4, §5
# [1] = cited from earlier work
# [2] = cited from earlier work; for metabolized fraction of the absorbed anesthetic: in vivo
# cytochrome P-450 = settings: microsomal preparations; cited from earlier work
# [3] = tested on: Chinese hamster lung fibroblast; settings: cited from earlier work
# [4] = humans; cited from earlier work
# human leukocyte culture = settings: cited from earlier work
# [5] = rat, 10 ppm, with nitrous oxide; cited from earlier work
# [6] = mouse, inhalation, 0.05%, 18 months; cited from earlier work
# [7] = tested on: spermatogonia cells and bone marrow cells; settings: rat, one-year exposure, 1 and 10 ppm, with nitrous oxide; cited from earlier work
# [8] = subanesthetic and/or anesthetic concentrations; cited from earlier work
# [9] = 37° C.; cited from earlier work
# [10] = tested on: Chinese hamster ovary cells; settings: cited from earlier work
Structure (SMILES),% Cross-Reaction 1X-Ab (1X-Ab) [%],% Cross-Reaction AAMU-Ab (AAMU-Ab),other results
"Cn1cnc2c1c(=O)[nH]c(=O)n2C [3,7-Dimethyl Xanthine (Theobromine), 3,7-Dimethyl Xanthine]",0,0%,
Nc1nc2nc[nH]c2c(=O)[nH]1 [Guanine],0,0%,
Cn1c(=O)[nH]c2[nH]c(=O)[nH]c2c1=O [1-Methyluric acid],11,0%,
Cn1c(=O)[nH]c(=O)c2[nH]cnc21 [3-Methyl Xanthine],0,0%,
Nc1ccc(S(=O)(=O)c2ccc(N)cc2)cc1 [dapsone],,,adverse reactions ([1]; fast acetylators): 17%; adverse reactions ([1]; slow acetylators): 46%
O=c1[nH]c(=O)c2[nH]c(=O)[nH]c2[nH]1 [Uric acid],0,0%,
Cc1nc2[nH]c(=O)[nH]c(=O)c2[nH]1 [8-Methyl Xanthine],0,0%,
"Cn1c(=O)[nH]c2ncn(C)c2c1=O [1,7-Dimethyl Xanthine (Paraxanthine), 1,7-Dimethyl Xanthine]",0.5,0%,
CC(=O)Nc1c(N)[nH]c(=O)[nH]c1=O [5-Acetamino-6-amino-uracil],0,0.6%,
O=c1[nH]c(=O)c2[nH]cnc2[nH]1 [Xanthine],0,0^a %,
O=c1[nH]cnc2nc[nH]c12 [Hypoxanthine],0,0%,
FC(F)OC(Cl)C(F)(F)F (stereo not drawn) [isoflurane],,,"metabolism, fraction of the absorbed anesthetic ([2]; estimated): approximately 0.2%"
CC(=O)Nc1c(N)n(C)c(=O)[nH]c1=O [5-Acetamino-6-amino-1-methyluracil],0,100%,
COC(F)(F)C(Cl)Cl [methoxyflurane],,,concentration that destroys cytochrome P-450 (cytochrome P-450): 5800 µM
"Cn1c(=O)[nH]c2[nH]c(=O)n(C)c2c1=O [1,7-Dimethyluric acid]",0,0%,
"Cn1c(=O)c2[nH]cnc2n(C)c1=O [1,3-Dimethyl Xanthine (Theophylline), 1,3-Dimethyl Xanthine]",0.2,0%,
Cn1cnc2[nH]c(=O)[nH]c(=O)c21 [7-Methyl Xanthine],0,0%,
FC(F)OC(F)(F)C(F)Cl (stereo not drawn) [Enflurane],,,metabolized fraction of the absorbed anesthetic [2]: 2-8%; concentration that destroys cytochrome P-450 (cytochrome P-450): 13300 µM
"Cn1c(=O)c2c(ncn2C)n(C)c1=O [1,3,7-Trimethyl Xanthine (Caffeine), 1,3,7-Trimethyl Xanthine]",0,0%,
O=c1cc[nH]c(=O)[nH]1 [Uracil],0,0%,
"Cn1c(=O)[nH]c2nc[nH]c2c1=O [1-Methyl Xanthine (1X), 1-Methyl Xanthine]",100,0%,
"FC(F)(F)C(Cl)Br (racemic) [Halothane, 2-bromo-2-chloro-1,1,1-trifluoro-ethane]",,,"mutagenesis, Chinese hamster lung fibroblast assay [3]: Negative; minimum alveolar concentration (MAC) [4]: 0.64%; mutagenesis, human leukocyte culture assay (human leukocyte culture): Negative; fertility [5]: decreased fertility; carcinogenicity [6]: no evidence of anesthetic-related carcinogenicity; mutagenesis, chromosomal damage [7]: chromosomal damage to spermatogonia cells and bone marrow cells; metabolized fraction of the absorbed anesthetic [2]: 25-45%; teratogenic effects [8]: teratogenic, embryotoxic, and fetotoxic; blood/gas coefficient [9]: 2.5; olive oil/water coefficient [9]: 220; concentration that destroys cytochrome P-450 (cytochrome P-450): 18800 µM; mutagenesis, sister chromatid exchange [10]: Negative"
"CC(=O)Nc1c(N)n(C)c(=O)n(C)c1=O [5-Acetamino-6-amino-1,3-dimethyluracil]",0,0%,
